Like-named read-outs stand apart in the source and are kept apart here.
Legend:
[1] = target: T1, full-length beta-Catenin (Uniprot ID P35222) (Homo sapiens, UniProt P35222); assay: Fluorescence polarization IC50 (beta-catenin / 5FAM-TCF4 10-53 competition); assay type: binding
T1 construct: 10 nM full-length beta-Catenin (Uniprot ID P35222)
T1 sequence (P35222 1-781): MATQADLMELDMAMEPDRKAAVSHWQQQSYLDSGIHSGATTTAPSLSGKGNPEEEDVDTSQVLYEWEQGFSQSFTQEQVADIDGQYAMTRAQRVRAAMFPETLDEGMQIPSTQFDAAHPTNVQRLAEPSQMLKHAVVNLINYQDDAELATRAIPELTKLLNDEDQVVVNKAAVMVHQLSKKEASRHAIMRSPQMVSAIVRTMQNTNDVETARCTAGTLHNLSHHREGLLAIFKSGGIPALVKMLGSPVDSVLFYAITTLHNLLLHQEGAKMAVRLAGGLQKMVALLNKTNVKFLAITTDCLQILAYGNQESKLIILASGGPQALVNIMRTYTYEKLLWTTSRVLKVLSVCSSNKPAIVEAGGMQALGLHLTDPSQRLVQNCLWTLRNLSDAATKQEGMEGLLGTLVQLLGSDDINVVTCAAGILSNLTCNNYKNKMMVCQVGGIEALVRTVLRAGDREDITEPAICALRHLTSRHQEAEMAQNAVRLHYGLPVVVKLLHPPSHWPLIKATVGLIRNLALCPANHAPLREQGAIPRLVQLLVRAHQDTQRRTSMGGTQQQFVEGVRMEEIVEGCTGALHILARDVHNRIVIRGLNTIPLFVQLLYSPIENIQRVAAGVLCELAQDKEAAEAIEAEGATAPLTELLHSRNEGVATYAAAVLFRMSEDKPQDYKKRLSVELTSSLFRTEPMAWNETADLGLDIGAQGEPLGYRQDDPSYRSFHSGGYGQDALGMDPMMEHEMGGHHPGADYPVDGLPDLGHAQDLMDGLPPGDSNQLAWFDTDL

[2] = target: T2, full-length B-Catenin (Uniprot ID P35222) (Homo sapiens, UniProt P35222); assay: Alphascreen binding assay (beta-catenin / biotin-TCF4 10-53)
T2 construct: 65 nM full-length B-Catenin (Uniprot ID P35222)
T2 sequence (P35222 1-781): T1 sequence (P35222 1-781)
In short: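 AlphaScreen (Ni-chelate beads) competition in 50 mM Tris pH 8.0, 250 mM NaCl with detergents and 0.1% BSA. Peptide titrated 10 uM–5 nM against 65 nM human β-catenin bound to 10 nM biotinylated TCF4 10-53, 15 min then 60 min with beads, both at 20 °C; 1:1 Hill-slope fit.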

CHI Log D procedure = assay type: physicochemical; conditions: for chromatographic logD: pH 7.4, CHI Log D; for CHI Log D: pH 7.4
[3] = Table E2-1, read-out: beta-Catenin FP IC50

| SMILES | IC50 [1, 3] [nM] | EC50 [2] [nM] | chromatographic logD (CHI Log D procedure) | IC50 ([1]; fluorescence polarization, beta-catenin, read-out: FP EC50) [nM] | CHI Log D (CHI Log D procedure) |
| --- | --- | --- | --- | --- | --- |
| CC(=O)N1CCC[C@]12CC=CCCCC1(CCCC=CCCCCCC[C@@](C)(C(=O)N[C@@H](Cc3ccccc3)C(=O)N[C@@H](Cc3c[nH]c4ccccc34)C(=O)N[C@@H](C)C(N)=O)NC(=O)[C@H](C)NC(=O)[C@H](Cc3ccccc3)NC(=O)[C@H](C)NC(=O)[C@H](C)NC(=O)[C@H](CCC(=O)O)NC(=O)[C@H](CC(=O)O)NC1=O)NC(=O)[C@H](C)NC(=O)[C@H](CC(=O)O)NC2=O (stereo partly drawn) [I-186, Ac-PL3-Asp-Ala-B5-Asp-Glu-Ala-Ala-Phe-Ala-S8-Phe-Trp-Ala-NH2] | – | 518 | – | – | 2.041 |
| CCCC[C@@H]1NC(=O)[C@H](CC(=O)O)NC(=O)[C@](C)(NC(=O)[C@@H](NC(=O)[C@H](CC(=O)O)NC(=O)[C@H](C)NC(C)=O)[C@@H](C)CC)CCN(C)C(=O)OCC=CCCCCC[C@@](C)(C(=O)N[C@@H](Cc2ccccc2)C(=O)N[C@@H](Cc2c[nH]c3ccccc23)C(=O)N[C@@H](Cc2c[nH]cn2)C(N)=O)NC(=O)[C@H](CCC(N)=O)NC(=O)[C@H](Cc2ccccc2)NC(=O)[C@H](C)NC(=O)[C@H](C)NC1=O [I-69, Ac-Ala-Asp-Ile-RdN-Asp-nLeu-Ala-Ala-Phe-Gln-S7-Phe-Trp-His-NH2] | – | 9100 | – | – | 1.593 |
| CC(=O)N1CCC[C@]12CC=CCCCC1(CCCC=CCCCCCC[C@@](C)(C(=O)N[C@@H](Cc3ccccc3)C(=O)N[C@@H](Cc3c[nH]c4ccccc34)C(=O)N[C@@H](CCC(N)=O)C(N)=O)NC(=O)[C@H](C(C)C)NC(=O)[C@H](Cc3cc(F)c(F)c(F)c3)NC(=O)[C@H](C)NC(=O)[C@H](C)NC(=O)[C@H](CCC(=O)O)NC(=O)[C@H](CC(=O)O)NC1=O)NC(=O)[C@H](C)NC(=O)[C@H](CC(=O)O)NC2=O (stereo partly drawn) [I-212, Ac-PL3-Asp-Ala-B5-Asp-Glu-Ala-Ala-345FF-Val-S8-Phe-Trp-Gln-NH2] | – | 367 | – | – | 2.101 |
| CC(=O)N[C@@H](Cc1ccccc1)C(=O)N[C@@H](CC(=O)O)C(=O)N[C@@H](C)C(=O)N[C@]1(C)CCCCCCC=CCOC(=O)N2CC[C@@](C(=O)N[C@@H](Cc3ccccc3)C(=O)N[C@@H](Cc3c[nH]c4ccccc34)C(=O)N[C@@H](CCC(N)=O)C(N)=O)(C2)NC(=O)[C@H](C(C)C)NC(=O)[C@H](Cc2ccc(C(N)=O)cc2)NC(=O)[C@H](C)NC(=O)[C@H](C)NC(=O)[C@H](CC(=O)O)NC(=O)[C@H](CC(=O)O)NC1=O [I-91, Ac-Phe-Asp-Ala-R8-Asp-Asp-Ala-Ala-4CBMF-Val-PyrS-Phe-Trp-Gln-NH2] | – | 4720 | – | – | 1.13 |
| CC(=O)N[C@@H](Cc1ccccc1)C(=O)N[C@@H](CC(=O)O)C(=O)N[C@@H](C)C(=O)N[C@]1(C)CCCC=CCOC(=O)N(C)CCC[C@@](C)(C(=O)N[C@@H](Cc2ccccc2)C(=O)N[C@@H](Cc2c[nH]c3ccccc23)C(=O)N[C@@H](CCC(N)=O)C(N)=O)NC(=O)[C@H](C(C)C)NC(=O)[C@H](Cc2ccccc2)NC(=O)[C@H](C)NC(=O)[C@H](C)NC(=O)[C@H](CC(=O)O)NC(=O)[C@H](CC(=O)O)NC1=O [I-25, Ac-Phe-Asp-Ala-R5-Asp-Asp-Ala-Ala-Phe-Val-SeN-Phe-Trp-Gln-NH2] | – | 7220 | 1.17 | – | – |
| CC(=O)N1CCC[C@]12CC=CCCCC1(CCCC=CCCCCCC[C@@](C)(C(=O)N[C@@H](Cc3ccccc3)C(=O)N[C@@H](Cc3c[nH]c4ccccc34)C(=O)N[C@@H](CCC(N)=O)C(N)=O)NC(=O)[C@H](C(C)C)NC(=O)[C@H](Cc3cc(F)c(F)c(F)c3)NC(=O)[C@H](C)NC(=O)[C@H](C)NC(=O)[C@H](CCC(=O)O)NC(=O)[C@H](CC(=O)O)NC1=O)NC(=O)[C@H](C)NC(=O)[C@H](CC(=O)O)NC2=O (stereo partly drawn) [I-211, Ac-PL3-Asp-Ala-B5-Asp-Glu-Ala-Ala-345FF-Val-S8-Phe-Trp-Gln-NH2] | – | 367 | – | – | 2.101 |

Other lines, results leading:

| IC50 [1, 3] [nM] | EC50 [2] [nM] | chromatographic logD (CHI Log D procedure) | IC50 ([1]; fluorescence polarization, beta-catenin, read-out: FP EC50) [nM] | CHI Log D (CHI Log D procedure) | SMILES |
| --- | --- | --- | --- | --- | --- |
| 1310 | 53 | 1.98 | – | – | CC(=O)N1CCC[C@]12CC=CCCCC1(CCCC=CCCCCCC[C@@](C)(C(=O)N[C@@H](Cc3ccccc3)C(=O)N[C@@H](Cc3c[nH]c4ccccc34)C(=O)N[C@@H](CCC(N)=O)C(N)=O)NC(=O)[C@H](C(C)C)NC(=O)[C@H](Cc3cccs3)NC(=O)[C@H](C)NC(=O)[C@H](C)NC(=O)[C@H](CC(=O)O)NC(=O)[C@H](CC(=O)O)NC1=O)NC(=O)[C@H](C)NC(=O)[C@H](CC(=O)O)NC2=O (stereo partly drawn) [I-325, Ac-PL3-Asp-Ala-B5-Asp-Asp-Ala-Ala-2Thi-Val-S8-Phe-Trp-Gln-NH2] |
| 2860 | 131 | – | 2860 | 2.074 | CC(=O)N1CCC[C@]12CC=CCCCC1(CCCC=CCCCCCC[C@@](C)(C(=O)N[C@@H](Cc3ccccc3)C(=O)N[C@@H](Cc3c[nH]c4ccccc34)C(=O)N[C@@H](CCC(N)=O)C(N)=O)NC(=O)[C@H](C(C)C)NC(=O)[C@H](Cc3cc(F)cc(F)c3)NC(=O)[C@H](C)NC(=O)[C@H](C)NC(=O)[C@H](CCC(=O)O)NC(=O)[C@H](CC(=O)O)NC1=O)NC(=O)[C@H](C)NC(=O)[C@H](CC(=O)O)NC2=O (stereo partly drawn) [I-219, Ac-PL3-Asp-Ala-B5-Asp-Glu-Ala-Ala-35FF-Val-S8-Phe-Trp-Gln-NH2] |
| – | 4900 | – | – | 2.098 | CC(=O)N1CCC[C@]12CC=CCCCC1(CCCC=CCCCCCC[C@@](C)(C(=O)N[C@@H](Cc3ccccc3)C(=O)N[C@@H](Cc3c[nH]c4ccccc34)C(=O)N[C@@H](CCC(N)=O)C(N)=O)NC(=O)[C@H](C(C)C)NC(=O)[C@H](Cc3ccc(C(F)(F)F)cc3)NC(=O)[C@H](C)NC(=O)[C@H](C)NC(=O)[C@H](CC(=O)O)NC(=O)[C@H](CC(=O)O)NC1=O)NC(=O)[C@H](C)NC(=O)[C@H](CC(=O)O)NC2=O (stereo partly drawn) [I-243, Ac-PL3-Asp-Ala-B5-Asp-Asp-Ala-Ala-4F3MeF-Val-S8-Phe-Trp-Gln-NH2] |
| – | 3690 | – | – | 2.214 | CC(=O)N1CCC[C@]12CC=CCCCC1(CCCC=CCCCCCC[C@@](C)(C(=O)N[C@@H](Cc3ccc(C(F)(F)F)cc3)C(=O)N[C@@H](Cc3c[nH]c4ccccc34)C(=O)N[C@@H](CCC(N)=O)C(N)=O)NC(=O)[C@H](C(C)C)NC(=O)[C@H](Cc3ccccc3)NC(=O)[C@H](C)NC(=O)[C@H](C)NC(=O)[C@H](CC(=O)O)NC(=O)[C@H](CC(=O)O)NC1=O)NC(=O)[C@H](C)NC(=O)[C@H](CC(=O)O)NC2=O (stereo partly drawn) [I-253, Ac-PL3-Asp-Ala-B5-Asp-Asp-Ala-Ala-Phe-Val-S8-4F3MeF-Trp-Gln-NH2] |
| – | 1960 | – | – | 2.232 | CC(=O)N1CCC[C@]12CC=CCCCC1(CCCC=CCCCCCC[C@@](C)(C(=O)N[C@@H](Cc3ccc(C(F)(F)F)cc3)C(=O)N[C@@H](Cc3c[nH]c4ccccc34)C(=O)N[C@@H](CCC(N)=O)C(N)=O)NC(=O)[C@H](C(C)C)NC(=O)[C@H](Cc3ccccc3)NC(=O)[C@H](C)NC(=O)[C@H](C)NC(=O)[C@H](CC(=O)O)NC(=O)[C@H](CC(=O)O)NC1=O)NC(=O)[C@H](C)NC(=O)[C@H](CC(=O)O)NC2=O (stereo partly drawn) [I-255, Ac-PL3-Asp-Ala-B5-Asp-Asp-Ala-Ala-Phe-Val-S8-4F3MeF-Trp-Gln-NH2] |
| – | 3470 | – | – | 2.074 | CC(=O)N1CCC[C@]12CC=CCCCC1(CCCC=CCCCCCC[C@@](C)(C(=O)N[C@@H](Cc3ccccc3)C(=O)N[C@@H](Cc3c[nH]c4ccccc34)C(=O)N[C@@H](CCC(N)=O)C(N)=O)NC(=O)[C@H](C(C)C)NC(=O)[C@H](Cc3ccc(C(F)(F)F)cc3)NC(=O)[C@H](C)NC(=O)[C@H](C)NC(=O)[C@H](CC(=O)O)NC(=O)[C@H](CC(=O)O)NC1=O)NC(=O)[C@H](C)NC(=O)[C@H](CC(=O)O)NC2=O (stereo partly drawn) [I-240, Ac-PL3-Asp-Ala-B5-Asp-Asp-Ala-Ala-4F3MeF-Val-S8-Phe-Trp-Gln-NH2] |
| – | 5810 | – | – | 3.044 | CC(=O)N1CCC[C@]12CC=CCCCC1(CCCC=CCCCCCC[C@@](C)(C(=O)N[C@@H](Cc3ccccc3)C(=O)N[C@@H](Cc3c[nH]c4ccccc34)C(=O)N[C@@H](CCC(N)=O)C(N)=O)NC(=O)[C@H](C(C)C)NC(=O)[C@H](Cc3ccccc3)NC(=O)[C@H](C)NC(=O)[C@H](C)NC(=O)[C@H](CCC(=O)O)NC(=O)[C@H](Cc3ccccn3)NC1=O)NC(=O)[C@H](C)NC(=O)[C@H](CC(=O)O)NC2=O (stereo partly drawn) [I-229, Ac-PL3-Asp-Ala-B5-2pyrA-Glu-Ala-Ala-Phe-Val-S8-Phe-Trp-Gln-NH2] |

Reference: patent US20240116985A1, “STAPLED PEPTIDES AND METHODS THEREOF” (priority 2020, published 2024)
